This note sets out measurements from US20120034210A1, “COMPOSITIONS FOR POTENTIATING APOPOSIS SIGNALS IN TUMOUR CELLS” (INSTITUT BERGONIE, priority 2008, published 2012).

Entries after “also recorded” stand apart in the source; their conditions may differ. Peptide text beside a SMILES is read from it. * marks the point of attachment. Cbz = O=C(OCc1ccccc1)*

The test system of test [1] is T and B leukemia/lymphoma cell lines and activated PBLs treated with FasL. Put plainly: Fas/CD95-mediated cell death (MTT test). The test is classed as cell-based, human. As to conditions: for sensitivity to the CD95-mediated apoptotic signal (% cell death): down-modulation of extracellular calcium, T and B-cell lines, vs untreated. The procedure: 2 to 4.10^4 cells were deposited in wells in a 96-well plate. The cells were incubated, in the presence of the different reactants for the times specified, at 37° C. in a final volume of 100 or 200 μl.
The MTT test enabled to measure the activity of a mitochondrial enzyme, the dehydrogenase succinate which transforms MTT (or 3-(4,5-dimethylthiazol-2-yl)-2,5-diphenyltetrazolium) bromide originally yellow in colour and soluble, into blue formazan crystals, insoluble in aqueous phase. Upon completion of the different treatments, the living cells were quantified by adding in each well 15 μl PBS (Phosphate Buffered Saline) containing 5 mg/ml MTT. […] Spectrophotometric reading of absorbance was done at 570 nm. The measurement of the optical density is directly proportional to the number of living cells and the percentage of cell death was calculated with the following formula: 100-[(DO treated cells/DO non-treated cells)*100].
A general note: Formazan colour is commonly taken as a measure of viable cells.

The subject of test [2] is DISC macro-complex (Fas/FADD/Caspase-8). Put plainly: DISC formation: Fas immunoprecipitation and Western blot. As to conditions: for recruitment of FADD and DISC formation: non-permeant chelators lowering extracellular calcium. It is filed as cell-based, human. The protocol: Cells were incubated with 1 μg/ml APO1-3 for 30 minutes at 4° C. After washing, cells were incubated for 15 minutes at 4° C. (0 minutes) or at 37° C. (15 minutes) and then lysed for 30 minutes at 4° C. in a lysis buffer (25 mM HEPES pH 7.4, 1% Triton X-100, 150 mM NaCl, 2 mM EDTA, a cocktail including protease inhibitors (Sigma)). The lysed cells were then centrifugated for 15 minutes at 15000 rpm in order to eliminate genomic DNA, and the supernatant was kept. The sepharose beads which were coupled with protein A were added to the lysate and the mixture was incubated for 2 hours. The beads were recovered, washed intensively and the immunoprecipitated proteins were re-suspended in a denaturing and reducing buffer (0.01M Tris-HCl pH6.8, 10% glycerol (v/v), 85 mM sodium dodecyl sulfate (SDS), 5% (v/v) […] and 0.005% (w/v) bromophenol blue) then heated at 100° C. for 5 minutes. The samples were deposited in an acrylamide/Bisacrylamide gel and separated by electrophoresis. The proteins were transferred from the gel into a nitrocellulose membrane using a semi-dry medium transfer technique for 2 hours at constant amperage (0.8 mA/cm^2). […] After transfer, the nitrocellulose membrane was saturated with proteins for 30 minutes with a TBST buffer (50 mM Tris pH=8, 0.15M sodium chloride, 0.05% (v/v) Tween-20) containing 5% (w/v) skimmed powdered milk (TBSTM). After washing with TBST, the membrane was incubated for 2 hours with the primary antibody in TBST. The membrane was washed intensively then incubated for one hour with TBST containing the secondary peroxidase-coupled antibody. […] This solution contained a substrate metabolised by peroxidase to yield a luminescent compound, which allowed marking a radiographic film (Amersham).
Background: A western blot detects proteins with antibodies after separation by electrophoresis.

Test [3] concerns Raji, BL2, Jurkat cell lines and activated PBL. Put plainly: Apoptosis % by loss of mitochondrial membrane potential. As to conditions: for induction of cell death via DR4/DR5 with calcium chelation: BL2 cell line, 24 h, prior incubation 15 minutes BAPTA-AM 1 μM. The test is classed as cell-based, human. The procedure:
2 to 4.10^4 cells were deposited in wells in a 96-well plate. The cells were incubated, in the presence of the different reactants for the times specified, at 37° C. in a final volume of 100 or 200 μl. The apoptotic cells were identified in the cellular populations by measuring mitochondrial de-polarisation. […] These potentiometric probes allowed monitoring the variations of the mitochondrial membrane potential. […] Following cell treatment with the different drugs, the former were placed in the presence of TMRM or DIOC6 at 10 nM concentration, for 20 minutes at 37° C. then the fluorescence of the cells was analysed by flow cytometry.

Test [4] deals with Raji cells. Put plainly: Raji B lymphoma tumour growth in Rag2-/-γ-/- mice. The test is classed as in vivo. As to conditions: Raji s.c.; single agent; Rituximab 2 mg/kg, Zoledronate 4 mg/kg. The protocol: The implantation of the tumours was done subcutaneously in Rag2−/−γ−/− mice flank aged from 5 to 7 weeks. Following implantation of the tumours, the mice were divided in groups of 8 to 10 animals for each treatment. The size of the tumour was assessed every day by measuring its width (w) and its length (I). Its volume was calculated according to the formula: V=lw^2/2. At the end of the experiment, the animals were sacrified, the tumour weight was measured.
From 10^6 Raji cells were implanted subcutaneously in mice flank. The effects of Rituximab alone, of Zoledronate alone, are assessed on the growth of tumours. Rituximab (2 mg/kg) was delivered 3 times a week, Zoledronate was delivered 1 time a week.

Test [5] has as its system intracellular calcium concentration. The experiment in a line: Intracellular Ca2+ concentration, indo-1 (micro)spectrofluorimetry. It is filed as cell-based, human. The procedure: Principle: [Ca^2+]i was measured by microspectrofluorimetry using a calcium sensitive fluorescent probe: indo-1. When excited at 360 nm wavelength, the so-called monoexcitation/double emission indo-1 probe transmitted back in a spectrum ranging from 400 to 500 nm. Binding of Ca^2+ to indo-1 caused displacement of the emission spectrum after excitation. The emission maximum in the unbound form was located around 480 nm. The emission of the complexed form was around 405 nm. An increase of calcium concentration thus caused the emission to increase to 405 nm and the emission to decrease to 480 nm. The ratio of both fluorescence intensities allowed to be independent from the quantity of the probe and to determine the [Ca^2+]i according to the Grynkiewicz equation:
[Ca^2+]i(nM)=Kd.β×(R−Rmin)/(Rmax−R)
Rmax, Rmin and Kd. β were determined by combining electrophysiology (patch clamp) and spectrofluorimetry. Rmax was determined by placing in the patch pipette a medium containing 10 mM CaCl2. Rmin was obtained by placing as an intrapipette solution a calcium-deprived medium (10 mM EGTA).
The cells were then rinsed with HBSS (800 rpm centrifugation for 2 minutes) and placed in an observation chamber on a glass coverslip. […] The excitation light is supplied by a Xenon lamp (100W). […] The substances to be tested were applied using a glass pipette positioned at some twenty μm of the studied cell and connected to a pneumatic system.
The principle as well as the loading of the cells were identical with the measurement on single cells. In such a case, approx. 40,000 cells were placed in a quartz tub under constant agitation. The tub was then placed in a Hitachi spectrofluorimeter whereof the excitation monochromator was set to 350 nm. […] The signals were transmitted to a computer via an analogue/digital converter. So as to be able to apply the Grynkiewicz equation (see above) and translate the fluorescence ratios measured in calcium values, the calibration parameters were entered into the software. The substances to be tested were applied directly in the tube under constant agitation.

With `O=C(O)CN(CCOCCOCCN(CC(=O)O)CC(=O)O)CC(=O)O` [EGTA, glycol-bis(2-aminoethylether)-N,N,N′,N′-tetraacetic acid], the “sensitivity to the CD95-mediated apoptotic signal (% cell death)” value in test [1] is “increased the sensitivity of T and B-cell lines to the CD95-mediated apoptotic signal”. Besides, in test [2] (H9 cells, CD95 stimulation), the “recruitment of FADD and DISC formation” value was “enhanced the recruitment of FADD and the DISC formation; also recorded: enhanced recruitment of FADD as well as enhanced DISC formation”. `CC(C)C[C@@H](C=O)NC(=O)[C@H](CC(C)C)NC(=O)[C@H](CC(C)C)NC(=O)OCc1ccccc1` [MG132] (Cbz-Leu-Leu-Leu-aldehyde): the “induction of cell death via DR4/DR5 with calcium chelation” value (“induction … with calcium chelation” below) in test [3] was “potentiated by calcium chelation”. Turning to `Clc1ccc(C(c2ccc(Cl)cc2)n2cc[n+](CC(OCc3ccc(Cl)cc3Cl)c3ccc(Cl)cc3Cl)c2)cc1` (stereo not shown) [calmidazolium], the “effect on CD95-mediated apoptotic signal” value in test [1] (calmodulin antagonist or CaMKII inhibitory peptide) was “did not alter the CD95-mediated apoptotic signal”. As to `C1CCC[C@H]2CCCN3CC[C@@H](CCCCCC[C@@H]4CCCN5CC[C@@H](CC1)O[C@@H]45)O[C@@H]23` [xestospongin C], the “FADD binding to CD95” value in test [2] (IP3-R antagonist, CD95 stimulation) was “significantly promoted FADD binding to CD95; also recorded: significant increase in FADD binding to CD95”. With `O=C(O)CN(CC(=O)O)c1ccccc1OCCOc1ccccc1N(CC(=O)O)CC(=O)O` [BAPTA, 1,2-bis(o-aminophenoxy)ethane-N,N,N′,N′-tetraacetic acid], the “sensitivity to the CD95-mediated apoptotic signal (% cell death)” value in test [1] is “increased the sensitivity of T and B-cell lines to the CD95-mediated apoptotic signal”. Also, the “recruitment of FADD and DISC formation” value in test [2] (H9 cells, CD95 stimulation) is “enhanced the recruitment of FADD and the DISC formation; also recorded: enhanced recruitment of FADD as well as enhanced DISC formation”. As for `CNCCC(Oc1ccc(C(F)(F)F)cc1)c1ccccc1` (stereo not shown) [fluoxetine], the “induction … with calcium chelation” value in test [3] was “potentiated by calcium chelation”.

For the molecule `Oc1ccc(C=Cc2cc(O)cc(O)c2)cc1` [resveratrol], the “induction … with calcium chelation” value in test [3] was “potentiated by calcium chelation”.

As for `C[C@H](CCC(=O)O)C[C@H](C)C[C@H](C)C(=O)/C=C(\O)[C@H](C)C[C@H](C)C/C=C/[C@@H](C)[C@@H](O)[C@@H](C)[C@@H](O)C[C@@H]1CC[C@@](C)([C@H]2CC[C@@](C)([C@@H](C)O)O2)O1` [ionomycine], the “DISC formation / FADD recruitment upon CD95 stimulation” value in test [2] (H9, Jurkat, activated PBTs, non-cytotoxic concentrations, vs untreated cells) is “prevented the recruitment of FADD to CD95 and the DISC formation; also recorded: absence of FADD recruitment and DISC formation”. For the same molecule, the “formation of the DISC macro-complex” value in test [2] (H9 cells, BAPTA-AM 1-10 μM or ionomycine 1 μM pre-incubation, then anti-Fas APO1-3 1 μg/ml 15 min 37° C., vs untreated cells) is “interfered with the formation of the DISC complex”. Moreover, in test [2] (H9 cells, ionomycine 1 μM, anti-Fas APO1-3), the “FADD binding and activation of caspase-8” value was “decreased the FADD binding and the activation of caspase-8”. Take “Rituximab: anti-CD20 monoclonal antibody”: the “tumour mass vs vehicle” value in test [4] is on record as “not significantly affected”. Moreover, in test [3] (Raji, defined medium 0.5 mM vs 4 mM calcium), the “death signalling and apoptosis induced by Rituximab in low calcium medium” value was “allowed potentiating the death signalling and apoptosis”. The “cell death signal induced by Rituximab with added extracellular calcium” value in test [3] (Raji, medium 3 mM vs 0.8 mM calcium) is on record as “inhibited the cell death signal”.

B1: CD95L: soluble CD95 ligand (Fas ligand), gp190-CD95L generated by Legembre et al. (protein, UniProt P48023 103-281, looked up)
extracellular domain: QLFHLQKELAELRESTSQMHTASSLEKQIGHPSPPPEKKELRKVAHLTGKSNSRSMPLEWEDTYGIVLLSGVKYKKGGLVINETGLYFVYSKVYFRGQSCNNLPLSHKVYMRNSKYPQDLVMMEGKMMSYCTTGQMWARSSYLGAVFNLTSADHLYVNVSELSLVNFEESQTFFGLYKL
modifications: extracellular domain gp190 fusion
As to B1, in test [5] (H9 and Jurkat, rapid and transient, basal level 100 to 150 nM), the “intracellular calcium peak upon CD95L” value was “up to 700 nM”. Moreover, the “calcium response to CD95L” value in test [5] (Jurkat CD95-Q257K vs parental cell line) is on record as “the calcium response remained unaltered”. In test [5] (cells devoid of FADD, caspase-8 or caspase-8 and -10), the “increase in [Ca2+]i upon CD95L” value is “did not display any modification of the increase in [Ca^2+]i”.

B2: TRAIL: soluble recombinant human TRAIL (TNF-related Apoptosis-Inducing Ligand), binds DR4 or DR5 (protein, UniProt P50591 39-281, looked up)
extracellular domain: TNELKQMQDKYSKSGIACFLKEDDSYWDPNDEESMNSPCWQVKWQLRQLVRKMILRTSEETISTVQEKQQNISPLVRERGPQRVAAHITGTRGRSNTLSSPNSKNEKALGRKINSWESSRSGHSFLSNLHLRNGELVIHEKGFYYIYSQTYFRFQEEIKENTKNDKQMVQYIYKYTSYPDPILLMKSARNSCWSKDAEYGLYSIYQGGIFELKENDRIFVSVTNEHLIDMDHEASFFGAFLVG
modifications: extracellular domain
With B2, the “induction … with calcium chelation” value in test [3] is reported as “potentiated by calcium chelation”.
